Laboratory results: article PMC5091913, “Identification and Validation of Small-Gatekeeper Kinases as Drug Targets in Giardia lamblia” (PLoS Neglected Tropical Diseases, 2016)
Where two headings read alike, the source gives them in different places.

What was measured:
Gl50803_16034 = target: T1, Gl50803_16034 (Giardia duodenalis, UniProt A8BHW1); experiment: thermal shift assay; format: binding
T1 construct: gene GL50803_0016034
T1 sequence (A8BHW1 1-432): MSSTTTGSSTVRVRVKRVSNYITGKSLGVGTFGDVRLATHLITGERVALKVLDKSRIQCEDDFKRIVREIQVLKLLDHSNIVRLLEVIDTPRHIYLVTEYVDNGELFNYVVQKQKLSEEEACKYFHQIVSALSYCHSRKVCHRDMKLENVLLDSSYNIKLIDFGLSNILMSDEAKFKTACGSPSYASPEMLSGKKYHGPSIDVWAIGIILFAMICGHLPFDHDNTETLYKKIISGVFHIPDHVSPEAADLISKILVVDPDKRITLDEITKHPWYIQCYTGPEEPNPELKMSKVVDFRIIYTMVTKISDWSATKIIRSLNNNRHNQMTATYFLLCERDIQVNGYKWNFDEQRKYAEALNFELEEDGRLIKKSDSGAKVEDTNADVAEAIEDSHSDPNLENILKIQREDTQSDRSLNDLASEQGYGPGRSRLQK

Gl50803_8445 = target: T2, Gl50803_8445 (Giardia duodenalis, UniProt A8BXP9); experiment: thermal shift assay; format: binding; settings: also printed as 2°–3°
T2 construct: gene GL50803_008445
T2 sequence (A8BXP9 1-597): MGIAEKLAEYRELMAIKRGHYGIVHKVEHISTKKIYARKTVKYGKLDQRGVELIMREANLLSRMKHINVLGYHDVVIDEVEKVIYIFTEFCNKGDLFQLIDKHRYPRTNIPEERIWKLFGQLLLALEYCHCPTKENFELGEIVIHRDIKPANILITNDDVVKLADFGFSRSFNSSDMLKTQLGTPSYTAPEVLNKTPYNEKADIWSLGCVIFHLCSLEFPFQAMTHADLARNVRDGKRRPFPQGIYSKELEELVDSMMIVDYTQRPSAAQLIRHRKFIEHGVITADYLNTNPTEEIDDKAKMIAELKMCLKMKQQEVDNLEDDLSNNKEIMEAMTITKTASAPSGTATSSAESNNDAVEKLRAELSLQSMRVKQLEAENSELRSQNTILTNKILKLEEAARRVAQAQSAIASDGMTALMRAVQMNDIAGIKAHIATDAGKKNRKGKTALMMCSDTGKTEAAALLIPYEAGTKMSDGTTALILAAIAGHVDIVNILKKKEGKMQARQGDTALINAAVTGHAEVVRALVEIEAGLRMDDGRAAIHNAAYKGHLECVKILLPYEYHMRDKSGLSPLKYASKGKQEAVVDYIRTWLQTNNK

Row | SMILES | ΔTm (Gl50803_16034; also printed as 2°–3°) | ΔTm (Gl50803_8445) | ΔTm (Gl50803_16034) [°]
1 | CCOc1ccc2cc(-c3nc(C(C)(C)C)n4ccnc(N)c34)ccc2c1 [compound 1213, 1213] | ~ 3 ° | ~ 3 ° | 
2 | Nc1ncnc2c1c(-c1ccc(-c3ccccc3)cc1)nn2CC1CCNCC1 [compound 1244, 1244] |  |  | 5.2
3 | Nc1ncnc2c1c(-c1ccc3nc(-c4ccccc4)oc3c1)nn2CC1CCNCC1 [compound 1264, 1264] |  |  | 6.5
